Data set [1] deals with Lin−Sca1+c-Kit+ cells (LSK). The data set can be described thus: Annexin V/PI staining of HSPC fractions after AZA in vivo. The note with it: AZA 1.25, 2.5 and 5 mg/kg/d for 3 days. Also noted: species or system mice. The method, then:
Analysis was performed 24 h after last AZA administration. Gated from LSK. (B) Annexin V+(left) and AnnexinV/PI+(right) cells shown as % from LSK in the three different dose groups as compared to untreated controls. Data were pooled from 2 independent experiments and represent mean±SD (n=4 in the control group and n=7 in the AZA groups). Statistics were calculated Mann-Whitney test (*P<0.05; **P<0.01).
In vivo direct killing by apoptosis was confirmed by flow cytometry using Annexin V/PI to stain the HSPC fractions.

The test system of data set [2] is hematopoietic stem and progenitor cells. The data set can be described thus: In vivo depletion of blood, spleen and bone marrow cells by AZA. Also on record: species or system C57BL/6 mice. The conditions noted are these: AZA 5 mg/kg/d for 5 days. The method, then: A. Schematic of treatment protocol. C57BL/6 mice were injected with 5-Azacytidine (AZA) in dose 5 mg/kg/d for 5 consecutive days. Peripheral blood, bone marrow (BM) and spleen were analyzed on days 6, 10 and 15 and 20 after start AZA treatment. B. Peripheral blood cell counts in untreated mice as compared to AZA-treated mice at day 6, 10 and 20 following AZA treatment. Hemoglobin (Hb); white blood cells (WBC). C. Total live cells in bone marrow (BM) and spleen of untreated mice and AZA-treated mice at day 6, 10, 15 and 20 after start AZA treatment. D. Hematoxylin and eosin staining of bone marrow section from mouse femur at day 6 after treatment with AZA 5 mg/kg/d for 5 days as compared to untreated control. Magnification 100 μm. E. Representative flow cytometric analysis of the hematopoietic stem and progenitor cell (HSPC) compartment in the BM of untreated and AZA-treated mice at day 6, 10, 15 and 20. […] Lin^−Sca1^+ c-Kit^+ cells (LSK), multipotent progenitors (MPP), long-term hematopoietic stem cells (LT-HSC), short-term HSC (ST-HSC). F. Absolute number of the different HSPC compartments at day 6, 10, 15 and 20 after start of AZA treatment as compared to untreated control mice. Lin^−Sca1^+c-Kit^+ (LSK); LSKCD150^+CD48^− (LT-HSC), LSKCD150^−CD48^− (ST-HSC), LSKCD150^+CD48^+ (MPP2), LSKCD150^−CD48^+Flt3^− (MPP3), LSKCD150^−CD48^+Flt3^+ (MPP4). Data in (B), (C) and (F) represent mean±SD (n=4 per group per timepoint). Statistics were calculated with Mann-Whitney test (*P<0.05).
Mice. C57BL/6 (B6) mice (H-2^b, Thy1.1, CD45.1/CD45.2) were recipients and B6 mice (H-2^b, Thy1.1, CD45.1) were donors for the congenic transplant experiments. BALB.B (H-2^b, Thy1.2, CD45.2) mice were used as recipients and B6 mice (H-2^b, Thy1.1, CD45.1) as donors for […] (allogeneic) transplant experiments. Recipients were >8 weeks old and donors were 8-12 weeks old at timepoint of transplantation. B6 (H-2^b, Thy1.1, CD45.2) mice were used for in vivo depletion studies. Mice were bred and maintained under pathogen free conditions at the Stanford University Research Animal Facility. All experiments were performed under a protocol approved by the Stanford Administrative Panel on Laboratory Animal Care.
In vivo administration of therapeutic agents and cytokines. Anti-mouse CD117 mAbs, clone ACK2 (BioXcell) and 2B8 (BioXcell), were injected retroorbital as a single dose of 500 μg following intraperitoneal administration of Diphenhydramine (Benadryl). Anti CD4 (clone GK1.5, BioXcell) and anti-CD8 (clone YTS169.4, BioXcell) were administered intraperitoneally at a dose of 100 μg in 100 μl phosphate-buffered saline (PBS). […] Before each injection, AZA was thawed for 10-15 min at room temperature (RT), resuspended in PBS and administered intraperitoneally in 100 μl. Recombinant murine SCF (PeproTech), dissolved in deionized water to concentration of 10 μg/ml, was injected intraperitoneally at the amount of 1 μg/day.
Flow cytometry. Cells were stained for surface markers and incubated at RT in the dark for 20 min.
Bone marrow and spleen cell preparation for analysis. Mice were euthanized and bone marrow (hips, femurs, tibia, spine) and spleen were harvested. Bones were crushed in PBS+2% bovine calf serum (BCS) into single cell suspensions and filtered through 70-μm filter (Falcon). Spleens were mashed direct in 70-μm filter (Falcon). RBC lysis was performed with ACK lysis buffer for 10 min at RT. Cells were rinsed, filtered again and counted on a Countess automated cell counter (Invitrogen).
Complete blood cell count. 20 μl of whole blood was collected via the tail vein and complete blood counts (CBC) were conducted using Heska HemaTrue Veterinary Hematology Analyzer (Heska).

Molecules are shown by their SMILES.

`Nc1ncn([C@@H]2O[C@H](CO)[C@@H](O)[C@H]2O)c(=O)n1` [AZA, 5-Azacytidine]: in data set [1], the “apoptosis and apoptotic cell death in the HSPC compartment” value is reported as “dose dependent”. In data set [2], the “rebound of splenic myeloid cells to normal levels” value was ≤ 10 days, the “recovery of BM B cells” value is > 15 days, the “recovery of all blood subsets to normal range values” is ≤ 20 days and the “recovery of overall BM cellularity” value is ≤ 10 days. Besides, the “recovery of the ST-HSC fraction in BM” value in data set [2] is > 20 days. Further, in data set [2] (BM), the “nadir of MPP4 and common lymphoid progenitors (CLP)” value amounted to 10 days; the “recovery of CMP and GMP” value is > 15 days; the “recovery of MEP” value was ≤ 10 days; the “recovery of MPP4 and CLP” value was ≤ 20 days. The “myeloid-biased multipotent progenitors MPP2 and MPP3 after BM depletion of HSC” value in data set [2] (by day 6) is “rapid expansion”. For the same compound, in data set [2] (by day 6, BM), the “depletion of common myeloid progenitors (CMP)” value is > 25 fold, the “depletion of granulocyte-macrophage progenitors (GMP)” value is > 18 fold and the “depletion of megakaryocyte-erythrocyte progenitors (MEP)” value is listed as > 11 fold. Further, in data set [2] (day 6), the “reduction of LT-HSC in BM at nadir” value stood at 15 fold, the “reduction of ST-HSC in BM at nadir” value is 24 fold and the splenic myeloid cells result was “significantly reduced”. Moreover, the “overall BM cellularity decreased” value in data set [2] (day 6, p value=0.0286) worked out at 80 % from baseline. In addition, the “maximal B cell (CD19) depletion in BM” value in data set [2] (day 10) was > 30 fold. The “B-cell development in the bone marrow (Hardy fractions)” value in data set [2] (days 6, 10, 15 and 20) is “maturation block at Fraction D and E”. For the same compound, the “reduction of granulocytes in blood” value in data set [2] (peripheral blood) is given as ~4 fold. Further, the “day of lowest blood values (Hb, WBC, granulocytes, lymphocytes, monocytes)” value in data set [2] (days after initiation of AZA) came out at 10 days.

For the origin of these results see patent publication US12564609B2, “Hematopoietic stem cell engraftment with a combination of agents” (The Board of Trustees of the Leland Stanford Junior …, priority 2020, dated 2026).
